Test system: culture astrocyte
Assay: Astrocyte proliferative activity test (BrdU cell proliferation ELISA)
Type: cell-based, mouse
Experimental: A pregnant ICR female mouse was purchased from Japan SLC, Inc., and a neonatal mouse 24 to 48 after birth was used for the test.
A neonatal ICR mouse (24 to 48 after birth) was sufficiently sterilized with 70% ethanol, immersed in 30 ml of PBS (−) in a 100 mm dish (diameter of 100 mm, Orange Scientific) for cell culture, and then placed in a clean bench. The neonatal mouse was subjected to cervical dislocation using tweezers and euthanized. Head of the neonatal mouse was open and the entire brain was removed. The obtained brain was transferred to a 100 mm dish for cell culture in which 15 ml of high glucose Dulbecco's modified Eagle medium (HG-D-MEM, Wako Pure Chemical Industries, Ltd.) is added. By using tweezers, the olfactory bulb, median eminence, and meninges were removed in the medium to obtain only a cerebrum having hippocampus. Subsequently, the obtained cerebrum was transferred to a 100 mm dish for cell culture added with 10 ml of HG-D-MEM, and using a scalpel, the cerebrum was finely cut to be 1 mm^2 or less. The cerebrum after cutting was transferred, together with the medium, to a 50 ml conical tube (TPP), and after allowing it to stand for 2 minutes, the supernatant was removed. Subsequently, the cerebrum after cutting was added with 4 ml of fresh HG-D-MEM, and after further adding 400 μl of 2.5% trypsin (SIGMA) and 40 μl of 1% DNase I (SIGMA), the cerebrum was incubated in a water bath at 37° C. for 10 minutes under intermittent stirring. Subsequently, to the cerebrum after cutting, 10 ml of HG-D-MEM (10% FBS) was added to terminate the reaction of trypsin followed by centrifuge for 3 minutes at 1,000×g using a centrifuge (H-9R, KOKUSAN Co., Ltd.). The supernatant was collected by an electric pipette, 10 ml of HG-D-MEM (10% FBS) was added to a precipitated cell mass, and pipetting using a sterile pipette was carried out several times until the cell mass is not observed. To remove the remaining cell mass from this cell dispersion, the cell dispersion was passed through a cell strainer (pore diameter of 100 μm, BD Falcon™), and the number of cells in the cell dispersion which has passed through the cell strainer was counted by using a cell counting plate. An adjustment was made with HG-D-MEM (10% FBS) such that the number of cells is 6.0×10^5 cells/ml. After the adjustment of the number of cells, the cell dispersion was seeded, in an amount of 7 ml for each, to a Poly-D-Lysine Cellware 100 mm Dish (PDL 100 mm dish, BD Falcon™). 96 Hours after the seeding, the medium was removed once using an aspirator, and after briefly washing the inside of a 100 mm PDL dish with 10 ml of PBS (−), the medium exchange was carried out by newly adding 7 ml of HG-D-MEM. The above method and the astrocyte preparation described below were carried out based on the method of McCarthy and de Vellis (1980, Non Patent Literature 30).
72 Hours after the medium exchange, the 100 mm PDL dish seeded with the cell broth was removed from the incubator, and tightly covered using a parafilm and fixed by overlaying 3 to 4 dishes. The resultant was cultured by shaking using a bioshaker (MULTI SHAKER MMS, INCUBATOR FMS/EYELA) under a condition including 37° C., 100 rpm, and 20 hours, and the neuronal cells, cell debris, dead cells or the like were liberated. At that time, in the inside the 100 mm PDL dish, only the astrocyte as a glial cell in central nervous system other than neuron was adhered (hereinbelow, described as culture astrocyte). After the shaking, the 100 mm PDL dish was transferred to a clean bench, the supernatant was removed by an aspirator and washed with 10 ml of PBS (−), and after adding 1 ml of 2.5% trypsin (SIGMA) using a Pasteur pipette, the dish was left to stand in an incubator for 10 minutes. The 100 mm PDL dish was again brought back to the clean bench, and added with 10 ml of Dulbecco's modified Eagle medium (D-MEM, Wako Pure Chemical Industries, Ltd.) (10% FBS). […]

Question: With `CNC(=O)Oc1ccc2c(c1)[C@]1(C)CCN(C)[C@@H]1N2C` [eserin, reference compound] as the molecule, how does the astrocyte proliferative activity (25 μM, FIG. 8 and FIG. 9) read?
Answer: Its astrocyte proliferative activity is “no significant astrocyte proliferative activity was observed”.

Question: For `NS(=O)(=O)Cc1noc2ccccc12` [zonisamide, reference compound], which astrocyte proliferation (100 μM, FIG. 7) is on record?
Answer: The astrocyte proliferation was “hardly observed”.
